Assay [1] concerns the target T1, PPAR-γ (Homo sapiens, UniProt P37231).
T1 sequence (P37231 231-505 limits assumed): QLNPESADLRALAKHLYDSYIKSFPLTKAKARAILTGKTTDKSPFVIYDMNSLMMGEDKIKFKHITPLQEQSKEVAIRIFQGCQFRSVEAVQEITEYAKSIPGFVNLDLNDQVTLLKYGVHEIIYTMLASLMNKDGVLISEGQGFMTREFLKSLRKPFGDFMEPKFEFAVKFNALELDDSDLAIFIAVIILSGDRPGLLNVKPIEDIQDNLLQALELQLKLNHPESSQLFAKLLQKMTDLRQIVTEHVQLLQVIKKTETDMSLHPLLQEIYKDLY
The experiment in a line: competitive radioligand binding with [3H]rosiglitazone on purified LBD.

Assay [2] deals with GST-DRIP-205 fusion protein (UniProt Q15648 1-1581). The experiment in a line: pull-down.
GST-DRIP-205 fusion protein, sequence (Q15648 whole entry, the tested form may be a part): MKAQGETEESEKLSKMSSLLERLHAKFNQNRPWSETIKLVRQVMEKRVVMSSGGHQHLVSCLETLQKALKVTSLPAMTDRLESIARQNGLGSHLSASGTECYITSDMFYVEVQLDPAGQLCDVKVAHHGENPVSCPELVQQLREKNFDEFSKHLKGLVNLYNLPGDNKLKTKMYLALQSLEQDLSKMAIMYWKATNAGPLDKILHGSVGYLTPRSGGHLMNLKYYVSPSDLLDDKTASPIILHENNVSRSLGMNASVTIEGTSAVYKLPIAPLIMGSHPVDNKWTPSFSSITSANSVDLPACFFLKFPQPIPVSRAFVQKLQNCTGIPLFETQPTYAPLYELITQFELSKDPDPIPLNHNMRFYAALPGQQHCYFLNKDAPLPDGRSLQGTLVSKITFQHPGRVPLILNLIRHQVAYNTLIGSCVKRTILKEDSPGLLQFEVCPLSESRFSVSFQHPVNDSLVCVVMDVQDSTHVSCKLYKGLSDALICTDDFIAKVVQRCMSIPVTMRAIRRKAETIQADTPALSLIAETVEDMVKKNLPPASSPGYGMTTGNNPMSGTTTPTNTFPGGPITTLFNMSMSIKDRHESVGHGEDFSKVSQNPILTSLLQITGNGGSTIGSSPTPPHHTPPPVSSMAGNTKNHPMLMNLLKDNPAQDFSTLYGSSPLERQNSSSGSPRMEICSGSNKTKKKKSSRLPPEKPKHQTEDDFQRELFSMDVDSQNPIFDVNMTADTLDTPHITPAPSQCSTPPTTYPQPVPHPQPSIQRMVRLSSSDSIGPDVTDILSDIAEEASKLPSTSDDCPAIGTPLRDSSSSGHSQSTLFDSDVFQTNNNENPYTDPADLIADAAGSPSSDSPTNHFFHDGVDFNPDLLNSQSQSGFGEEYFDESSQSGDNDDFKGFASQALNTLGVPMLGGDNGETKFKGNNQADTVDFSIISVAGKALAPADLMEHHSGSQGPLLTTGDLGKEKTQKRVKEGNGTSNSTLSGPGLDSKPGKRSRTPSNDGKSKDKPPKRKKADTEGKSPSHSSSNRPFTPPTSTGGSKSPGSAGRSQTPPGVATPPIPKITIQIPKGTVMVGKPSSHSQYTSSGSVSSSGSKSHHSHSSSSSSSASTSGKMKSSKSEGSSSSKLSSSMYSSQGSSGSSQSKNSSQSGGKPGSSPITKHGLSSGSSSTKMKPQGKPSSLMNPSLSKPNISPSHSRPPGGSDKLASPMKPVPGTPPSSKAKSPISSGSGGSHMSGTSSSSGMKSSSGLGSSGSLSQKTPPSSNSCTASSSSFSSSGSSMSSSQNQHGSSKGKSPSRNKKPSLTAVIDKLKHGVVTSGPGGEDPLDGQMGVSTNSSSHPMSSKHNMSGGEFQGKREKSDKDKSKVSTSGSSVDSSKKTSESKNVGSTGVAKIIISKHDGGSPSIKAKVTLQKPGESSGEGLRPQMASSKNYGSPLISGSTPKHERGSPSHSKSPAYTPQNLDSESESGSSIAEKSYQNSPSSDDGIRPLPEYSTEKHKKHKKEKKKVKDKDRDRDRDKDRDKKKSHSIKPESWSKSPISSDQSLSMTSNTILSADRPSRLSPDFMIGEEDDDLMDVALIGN

By Ki is commonly meant a dissociation constant, usually derived from enzyme kinetics or from competition with a known ligand. A high value points to a looser hold on the target. Take `Nc1ccc(O)c(C(=O)O)c1` [5-ASA]: affinity in assay [1] was put at a Ki of 28.7 mM.

B1: [35S]methionine-labeled human PPAR-γ (receptor, UniProt P37231-1 1-505, looked up)
chain: MGETLGDSPIDPESDSFTDTLSANISQEMTMVDTEMPFWPTNFGISSVDLSVMEDHSHSFDIKPFTTVDFSSISTPHYEDIPFTRTDPVVADYKYDLKLQEYQSAIKVEPASPPYYSEKTQLYNKPHEEPSNSLMAIECRVCGDKASGFHYGVHACEGCKGFFRRTIRLKLIYDRCDLNCRIHKKSRNKCQYCRFQKCLAVGMSHNAIRFGRMPQAEKEKLLAEISSDIDQLNPESADLRALAKHLYDSYIKSFPLTKAKARAILTGKTTDKSPFVIYDMNSLMMGEDKIKFKHITPLQEQSKEVAIRIFQGCQFRSVEAVQEITEYAKSIPGFVNLDLNDQVTLLKYGVHEIIYTMLASLMNKDGVLISEGQGFMTREFLKSLRKPFGDFMEPKFEFAVKFNALELDDSDLAIFIAVIILSGDRPGLLNVKPIEDIQDNLLQALELQLKLNHPESSQLFAKLLQKMTDLRQIVTEHVQLLQVIKKTETDMSLHPLLQEIYKDLY
modifications: [35S]methionine-labeled
As for B1, the “amount bound with 5-ASA (5 mM) relative to that with rosiglitazone (10^-5 M)” value in assay [2] was ~150%.

The values are drawn from paper PMC2213148 (The Journal of Experimental Medicine, 2005).
